# Experimental data reported in PMC10115881, “Disrupting the α-synuclein-ESCRT interaction with a peptide inhibitor mitigates neurodegeneration in preclinical models of Parkinson’s disease” (Nature Communications, 2023).
# Experiments:
# [1] = system: a-syn oligomers in iPSC-derived dopaminergic neurons; assay: a-syn oligomer (Syn-O2) fluorescence in iPSC-derived dopaminergic neurons; format: cell-based, human; details: A53T a-syn iPSC-derived dopaminergic neurons
# Text: Further, we used an antibody that has a high binding affinity for oligomeric a-syn and recognizes early soluble oligomers and late fibrils of a-syn (Syn-O2)[54]. This antibody detects these a-syn conformations in cerebrospinal fluid[55] and brain tissue[54] from PD patients. Levels of these a-syn conformations were increased in A53T a-syn neurons (Fig. 6G, H). Further, LAMP1 levels were reduced in A53T a-syn neurons (Fig. 6D, F).
# A53T a-syn iCell Dopa neurons (catalog #R1109) and isogenic control iCell Dopa neurons (catalog #R1088) were purchased from Fujifilm Cellular Dynamics (Madison, WI, USA) and cultured as per the manufacturer’s instructions. […]
# Confocal images of immunofluorescent staining were acquired with a Zeiss LSM880 confocal microscope equipped with 405, 488, 555, and 639 nm laser lines. All images were taken within the linear range at constant gain and pinhole settings at optimal resolution settings determined by the software. […]
# Confocal images of primary cortical neurons, iPSC-derived dopaminergic neurons, and LAMP1 staining within the SN were processed using Imaris software (Oxford instruments). […] Mean pixel intensity per GFP^+ cell (for experiments using GFP-tagged peptides) or RFP^+ cell (for experiments using RFP-tagged peptides) was calculated for a-syn or LAMP1 signal using the software’s surfaces module. […]
# [2] = system: A53T a-syn expressing HEK293 cells; assay: Cell viability with CHMP2B or VPS4 shRNA knockdown, A53T a-syn cells; format: cell-based, human; set-up: Knockdown effect on cell viability: scale not given here
# Text: Fig. 1 Proteomic screens and in vitro validation of hits. A Schematic of the experimental design including proteomic screens, identification and validation of hits, target deconvolution, and evaluation in cell and animal models (created using Servier Medical Art at https://smart.servier.com/). For the cytotoxicity screen, we employed our peptide library to identify peptides that rescue cytotoxicity induced by a-syn overexpression and proteostatic stress (due to MG132 administration). To screen our library for peptides that inhibit a-syn oligomers, we used FACS with a split YFP-a-syn system (cells co-expressing V1S and SV2). B Validation of cell viability effect of peptides in A53T and WT a-syn expressing cells under proteostatic stress as well as controls. MG132 was used at a concentration of 10 μM. Experiments were done in triplicate. Data represent means ± s.d. (unpaired two-tailed t-tests; A53T PDpep1, P = 0.0051; A53T PDpep1.1, P = 0.0002; A53T PDpep1.2, P = 0.0035; A53T PDpep1.3, P < 0.0001; WT a-syn PDpep1.3, P = 0.0008; n = 3). C WT a-syn oligomers as measured by luciferase activity. […] Experiments were done in triplicate. Data represent means ± s.d. (unpaired two-tailed t-tests; PDpep1, P = 0.0008; PDpep1.1, PDpep1.2, PDpep1.3, P < 0.0001; n = 3). D Co-immunoprecipitation experiment with Flag-CHMP2B and GFP-peptides (n = 3). […] E Fluorescence polarization (FP) binding assay of a FITC-labeled PDpep1.3 peptide against CHMP2B. Error bars represent ± s.d. of the fit (n = 5). F Knockdown of CHMP2B or VPS4 in A53T a-syn expressing cells under proteostatic stress. Cell viabilities were measured with cells stably expressing different shRNAs and transfected with Scramble or PDpep1.3 peptide. Experiments were done in triplicate. Data represent means ± s.d. (unpaired two-tailed t-tests; PDpep1.3, P = 0.0005; n = 3). **P < 0.01; ***P < 0.001; ****P < 0.0001. Source data are provided as a Source Data file.
# Cells were trypsinized from subconfluent cultures as described earlier, suspended in culture media, and then seeded into triplicate wells of a 96-well plate (100 µl/well) at a density of 1.5 × 10^4 cells per well with standard culture conditions of 5% CO2 at 37 °C. Cells were infected with lentivirus expressing peptide at a MOI of 5 for 72 h or transfected with plasmid for 72 h. Cell Titer-Glo reagent was added to each well (30 µL), according to the manufacturer’s protocol and […].
sequence,measurement,setting,value
DEEIERQLKALG [PDpep1.3],"Effect on oligomeric a-syn, iPSC neurons",[1],"returned levels of a-syn, including oligomeric a-syn, as well as LAMP1 levels to those of isogenic controls"
same,Knockdown effect on cell viability,"[2]; CHMP2B shRNA, replicate 1",1.187
same,Knockdown effect on cell viability,"[2]; CHMP2B shRNA, replicate 2",1.181
same,Knockdown effect on cell viability,"[2]; CHMP2B shRNA, replicate 3",1.121
same,Knockdown effect on cell viability,"[2]; No shRNA, replicate 1",1.473
same,Knockdown effect on cell viability,"[2]; No shRNA, replicate 2",1.4504
same,Knockdown effect on cell viability,"[2]; No shRNA, replicate 3",1.525
same,Knockdown effect on cell viability,"[2]; VPS4A shRNA, replicate 1",1.3172
same,Knockdown effect on cell viability,"[2]; VPS4A shRNA, replicate 2",1.331
same,Knockdown effect on cell viability,"[2]; VPS4A shRNA, replicate 3",1.421
same,Knockdown effect on cell viability,"[2]; VPS4A/B shRNA, replicate 1",1.464
same,Knockdown effect on cell viability,"[2]; VPS4A/B shRNA, replicate 2",1.542
same,Knockdown effect on cell viability,"[2]; VPS4A/B shRNA, replicate 3",1.564
same,Knockdown effect on cell viability,"[2]; VPS4B shRNA, replicate 1",1.302
same,Knockdown effect on cell viability,"[2]; VPS4B shRNA, replicate 2",1.395
same,Knockdown effect on cell viability,"[2]; VPS4B shRNA, replicate 3",1.343
same,Cytoprotective effect under knockdown,[2]; shRNA CHMP2B or VPS4A and/or VPS4B,"prevented by CHMP2B knockdown, but not by knockdown of VPS4A and/or VPS4B"
